Results reported in the supplement of paper PMC9663587.

Key:
Paclitaxel = compound: CC(=O)O[C@H]1C(=O)[C@@]2(C)[C@H]([C@H](OC(=O)c3ccccc3)[C@]3(O)C[C@H](OC(=O)[C@H](O)[C@@H](NC(=O)c4ccccc4)c4ccccc4)C(C)=C1C3(C)C)[C@]1(OC(C)=O)CO[C@@H]1C[C@@H]2O [Paclitaxel]
BSJ-03-123 [1] = compound: T1, CC(=O)c1c(C)c2cnc(Nc3ccc(N4CCN(CCOCCOCCOCCNC(=O)COc5cccc6c5C(=O)N(C5CCC(=O)NC5=O)C6=O)CC4)cn3)nc2n(C2CCCC2)c1=O [BSJ-03-123]
INK128/MLN0128 = compound: CC(C)n1nc(-c2ccc3oc(N)nc3c2)c2c(N)ncnc21 [INK128/MLN0128]
[2] = compound: CCN1CCN(Cc2ccc(Nc3ncc(F)c(-c4cc(F)c5nc(C)n(C(C)C)c5c4)n3)nc2)CC1
Neratinib/HKI272 [3] = compound: T2, CCOc1cc2ncc(C#N)c(Nc3ccc(OCc4ccccn4)c(Cl)c3)c2cc1NC(=O)/C=C/CN(C)C [Neratinib/HKI272]
Volasertib/BI6727 = compound: CC[C@@H]1C(=O)N(C)c2cnc(Nc3ccc(C(=O)N[C@H]4CC[C@H](N5CCN(CC6CC6)CC5)CC4)cc3OC)nc2N1C(C)C [Volasertib/BI6727]
LEE011/Ribociclib [4] = compound: T3, CN(C)C(=O)c1cc2cnc(Nc3ccc(N4CCNCC4)cn3)nc2n1C1CCCC1 [LEE011/Ribociclib]
THZ531 = compound: CN(C)C/C=C/C(=O)Nc1ccc(C(=O)N2CCC[C@@H](Nc3ncc(Cl)c(-c4c[nH]c5ccccc45)n3)C2)cc1 [THZ531]
ABT-737 = compound: CN(C)CC[C@H](CSc1ccccc1)Nc1ccc(S(=O)(=O)NC(=O)c2ccc(N3CCN(Cc4ccccc4-c4ccc(Cl)cc4)CC3)cc2)cc1[N+](=O)[O-] [ABT-737]
[5] = compound: COc1ccc2c(c1)[C@]1(C[C@H]1c1ccc3c(/C=C/c4ccc(CN5C[C@@H](C)O[C@@H](C)C5)cc4)n[nH]c3c1)C(=O)N2
Pictilisib/GDC0941 = compound: CS(=O)(=O)N1CCN(Cc2cc3nc(-c4cccc5[nH]ncc45)nc(N4CCOCC4)c3s2)CC1 [Pictilisib/GDC0941]
Ceritinib/LDK378 = compound: Cc1cc(Nc2ncc(Cl)c(Nc3ccccc3S(=O)(=O)C(C)C)n2)c(OC(C)C)cc1C1CCNCC1 [Ceritinib/LDK378]
Taselisib/GDC0032 = compound: Cc1nc(-c2cn3c(n2)-c2ccc(-c4cnn(C(C)(C)C(N)=O)c4)cc2OCC3)n(C(C)C)n1 [Taselisib/GDC0032]
Tivantinib/ARQ197 = compound: O=C1NC(=O)[C@@H](c2cn3c4c(cccc24)CCC3)[C@@H]1c1c[nH]c2ccccc12 [Tivantinib/ARQ197]
YKL-5-124 = compound: C=CC(=O)Nc1ccc(C(=O)Nc2[nH]nc3c2CN(C(=O)N[C@H](CN(C)C)c2ccccc2)C3(C)C)cc1 [YKL-5-124]; experiment: GR value, 72 h; higher = faster growth (1 = untreated, <0 = killing);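 note: breast cancer and non-malignant breast epithelial lines, nine half-log doses, viable cells counted by Hoechst and LIVE/DEAD dye imaging versus time-zero plates and DMSO controls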
BSJ-03-123 [6] = compound: T1, BSJ-03-123; experiment: as above
[7] = compound: CCN1CCN(Cc2ccc(Nc3ncc(F)c(-c4cc(F)c5nc(C)n(C(C)C)c5c4)n3)nc2)CC1; experiment: as above
Neratinib/HKI272 [8] = compound: T2, Neratinib/HKI272; experiment: as above
[9] = compound: CCc1cnn2c(NCc3ccc[n+]([O-])c3)cc(N3CCCC[C@H]3CCO)nc12; experiment: as above
LEE011/Ribociclib [10] = compound: T3, LEE011/Ribociclib; experiment: as above
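Throughout, for GR50, 72 h: breast cancer and non-malignant breast epithelial cell lines, Deep Dye Drop or Dye Drop imaging, nine half-log doses, GR normalized to time-zero plates and DMSO-only controls.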

## MCF7
Paclitaxel
  GR50, 72 h: 0.00138 µM
BSJ-03-123 [1]
  GR50, 72 h: 1.42 µM
INK128/MLN0128
  GR50, 72 h: 0.00298 µM
[2]
  GR50, 72 h: 0.0236 µM
Neratinib/HKI272 [3]
  GR50, 72 h: 1.26 µM
Volasertib/BI6727
  GR50, 72 h: 0.00287 µM
LEE011/Ribociclib [4]
  GR50, 72 h: 0.185 µM
THZ531
  GR50, 72 h: 0.061 µM
ABT-737
  GR50, 72 h: > 10 µM
[5]
  GR50, 72 h: 0.00197 µM
Pictilisib/GDC0941
  GR50, 72 h: 0.13 µM
Ceritinib/LDK378
  GR50, 72 h: 0.344 µM
Taselisib/GDC0032
  GR50, 72 h: 0.00836 µM
Tivantinib/ARQ197
  GR50, 72 h: 0.151 µM
YKL-5-124; 0.001 µM
  GR value: 0.557 GR
YKL-5-124; 0.003162 µM
  GR value: 0.403 GR
YKL-5-124; 0.01 µM
  GR value: 0.316 GR
YKL-5-124; 0.03162 µM
  GR value: 0.266 GR
YKL-5-124; 0.1 µM
  GR value: 0.18 GR
YKL-5-124; 0.3162 µM
  GR value: 0.0831 GR
YKL-5-124; 1 µM
  GR value: 0.131 GR
YKL-5-124; 3.162 µM
  GR value: 0.0763 GR
YKL-5-124; 10 µM
  GR value: -0.269 GR
BSJ-03-123 [6]; 0.001 µM
  GR value: 0.928 GR
BSJ-03-123 [6]; 0.003162 µM
  GR value: 0.899 GR
BSJ-03-123 [6]; 0.01 µM
  GR value: 0.858 GR
BSJ-03-123 [6]; 0.03162 µM
  GR value: 0.784 GR
BSJ-03-123 [6]; 0.1 µM
  GR value: 0.789 GR
BSJ-03-123 [6]; 0.3162 µM
  GR value: 0.727 GR
BSJ-03-123 [6]; 1 µM
  GR value: 0.604 GR
BSJ-03-123 [6]; 3.162 µM
  GR value: 0.544 GR
BSJ-03-123 [6]; 10 µM
  GR value: -0.327 GR
[7]; 0.001 µM
  GR value: 0.893 GR
[7]; 0.003162 µM
  GR value: 0.789 GR
[7]; 0.01 µM
  GR value: 0.512 GR
[7]; 0.03162 µM
  GR value: 0.349 GR
[7]; 0.1 µM
  GR value: 0.236 GR
[7]; 0.3162 µM
  GR value: 0.235 GR
[7]; 1 µM
  GR value: 0.0993 GR
[7]; 3.162 µM
  GR value: -0.189 GR
[7]; 10 µM
  GR value: -0.268 GR
Neratinib/HKI272 [8]; 0.0003162 µM
  GR value: 1.04 GR
Neratinib/HKI272 [8]; 0.001 µM
  GR value: 1.03 GR
Neratinib/HKI272 [8]; 0.003162 µM
  GR value: 0.998 GR
Neratinib/HKI272 [8]; 0.01 µM
  GR value: 0.951 GR
Neratinib/HKI272 [8]; 0.03162 µM
  GR value: 0.947 GR
Neratinib/HKI272 [8]; 0.1 µM
  GR value: 0.931 GR
Neratinib/HKI272 [8]; 0.3162 µM
  GR value: 0.774 GR
Neratinib/HKI272 [8]; 1 µM
  GR value: 0.657 GR
Neratinib/HKI272 [8]; 3.162 µM
  GR value: 0.0611 GR
[9]; 0.0001 µM
  GR value: 1.02 GR
[9]; 0.0003162 µM
  GR value: 0.997 GR
[9]; 0.001 µM
  GR value: 0.979 GR
[9]; 0.003162 µM
  GR value: 0.967 GR
[9]; 0.01 µM
  GR value: 0.3 GR
[9]; 0.03162 µM
  GR value: -0.247 GR
[9]; 0.1 µM
  GR value: -0.276 GR
[9]; 0.3162 µM
  GR value: -0.241 GR
[9]; 1 µM
  GR value: -0.255 GR
LEE011/Ribociclib [10]; 0.001 µM
  GR value: 0.87 GR
LEE011/Ribociclib [10]; 0.003162 µM
  GR value: 0.786 GR
LEE011/Ribociclib [10]; 0.01 µM
  GR value: 0.682 GR
LEE011/Ribociclib [10]; 0.03162 µM
  GR value: 0.651 GR
LEE011/Ribociclib [10]; 0.1 µM
  GR value: 0.53 GR
LEE011/Ribociclib [10]; 0.3162 µM
  GR value: 0.414 GR
LEE011/Ribociclib [10]; 1 µM
  GR value: 0.407 GR
LEE011/Ribociclib [10]; 3.162 µM
  GR value: 0.275 GR
LEE011/Ribociclib [10]; 10 µM
  GR value: 0.295 GR

## HCC1143
Paclitaxel
  GR50, 72 h: 0.00207 µM
BSJ-03-123 [1]
  GR50, 72 h: 1.87 µM
INK128/MLN0128
  GR50, 72 h: 0.0405 µM
[2]
  GR50, 72 h: 0.0703 µM
Neratinib/HKI272 [3]
  GR50, 72 h: 0.672 µM
Volasertib/BI6727
  GR50, 72 h: 0.00459 µM
LEE011/Ribociclib [4]
  GR50, 72 h: 3.65 µM
THZ531
  GR50, 72 h: 0.131 µM
ABT-737
  GR50, 72 h: 6.19 µM
[5]
  GR50, 72 h: 0.00523 µM
Pictilisib/GDC0941
  GR50, 72 h: 0.978 µM
Ceritinib/LDK378
  GR50, 72 h: 1.45 µM
Taselisib/GDC0032
  GR50, 72 h: 0.215 µM
Tivantinib/ARQ197
  GR50, 72 h: 0.278 µM
YKL-5-124; 0.001 µM
  GR value: 0.423 GR
YKL-5-124; 0.003162 µM
  GR value: 0.398 GR
YKL-5-124; 0.01 µM
  GR value: 0.336 GR
YKL-5-124; 0.03162 µM
  GR value: 0.241 GR
YKL-5-124; 0.1 µM
  GR value: 0.223 GR
YKL-5-124; 0.3162 µM
  GR value: 0.183 GR
YKL-5-124; 1 µM
  GR value: 0.142 GR
YKL-5-124; 3.162 µM
  GR value: 0.0598 GR
YKL-5-124; 10 µM
  GR value: -0.0734 GR
BSJ-03-123 [6]; 0.001 µM
  GR value: 0.905 GR
BSJ-03-123 [6]; 0.003162 µM
  GR value: 0.89 GR
BSJ-03-123 [6]; 0.01 µM
  GR value: 0.906 GR
BSJ-03-123 [6]; 0.03162 µM
  GR value: 0.858 GR
BSJ-03-123 [6]; 0.1 µM
  GR value: 0.861 GR
BSJ-03-123 [6]; 0.3162 µM
  GR value: 0.797 GR
BSJ-03-123 [6]; 1 µM
  GR value: 0.613 GR
BSJ-03-123 [6]; 3.162 µM
  GR value: 0.481 GR
BSJ-03-123 [6]; 10 µM
  GR value: 0.028 GR
[7]; 0.001 µM
  GR value: 0.881 GR
[7]; 0.003162 µM
  GR value: 0.924 GR
[7]; 0.01 µM
  GR value: 0.746 GR
[7]; 0.03162 µM
  GR value: 0.604 GR
[7]; 0.1 µM
  GR value: 0.406 GR
[7]; 0.3162 µM
  GR value: 0.282 GR
[7]; 1 µM
  GR value: 0.178 GR
[7]; 3.162 µM
  GR value: 0.142 GR
[7]; 10 µM
  GR value: -0.0908 GR
Neratinib/HKI272 [8]; 0.0003162 µM
  GR value: 0.964 GR
Neratinib/HKI272 [8]; 0.001 µM
  GR value: 0.951 GR
Neratinib/HKI272 [8]; 0.003162 µM
  GR value: 0.941 GR
Neratinib/HKI272 [8]; 0.01 µM
  GR value: 0.864 GR
Neratinib/HKI272 [8]; 0.03162 µM
  GR value: 0.876 GR
Neratinib/HKI272 [8]; 0.1 µM
  GR value: 0.761 GR
Neratinib/HKI272 [8]; 0.3162 µM
  GR value: 0.654 GR
Neratinib/HKI272 [8]; 1 µM
  GR value: 0.458 GR
Neratinib/HKI272 [8]; 3.162 µM
  GR value: 0.0904 GR
[9]; 0.0001 µM
  GR value: 0.993 GR
[9]; 0.0003162 µM
  GR value: 0.988 GR
[9]; 0.001 µM
  GR value: 0.99 GR
[9]; 0.003162 µM
  GR value: 1.04 GR
[9]; 0.01 µM
  GR value: 0.95 GR
[9]; 0.03162 µM
  GR value: -0.238 GR
[9]; 0.1 µM
  GR value: -0.231 GR
[9]; 0.3162 µM
  GR value: -0.252 GR
[9]; 1 µM
  GR value: -0.228 GR
LEE011/Ribociclib [10]; 0.001 µM
  GR value: 0.856 GR
LEE011/Ribociclib [10]; 0.003162 µM
  GR value: 0.876 GR
LEE011/Ribociclib [10]; 0.01 µM
  GR value: 0.848 GR
LEE011/Ribociclib [10]; 0.03162 µM
  GR value: 0.74 GR
LEE011/Ribociclib [10]; 0.1 µM
  GR value: 0.753 GR
LEE011/Ribociclib [10]; 0.3162 µM
  GR value: 0.712 GR
LEE011/Ribociclib [10]; 1 µM
  GR value: 0.72 GR
LEE011/Ribociclib [10]; 3.162 µM
  GR value: 0.551 GR
LEE011/Ribociclib [10]; 10 µM
  GR value: 0.311 GR
